From patent US7855166B2, “Sulfonylamino(thio)carbonyl compounds” (Bayer Cropscience GmbH, priority 2005, dated 2010)

Assays:
[1] = system: weed plants such as Sinapis alba, Echinochloa crus-galli, Lolium multiflorum, Chrysanthemum segetum, Setaria viridis, Abutilon theophrasti, Amaranthus …; experiment: Post-emergence effect on weeds (greenhouse pot test, visual scoring); assay type: in vivo; settings: applied post-emergence (three-leaf stage) at a rate of 0.3 kg or less of active substance per hectare; scored after about 3 to 4 weeks in comparison to untreated controls
[2] = system: weed plants such as Sinapis alba, Chrysanthemum segetum, Avena sativa, Stellaria media, Echinochloa crus-galli, Lolium multiflorum, Setaria viridis, Abutilon …; experiment: Pre-emergence effect on weeds (greenhouse pot test, visual scoring); assay type: in vivo; settings: applied pre-emergence at a rate of 0.3 kg or less of active substance per hectare; scored after 3 to 4 weeks in comparison to untreated controls

| Compound | herbicidal action against weed plants (effect scored visually) [1] | herbicidal action against weed plants (visual scoring of plant damage or emergence damage) [2] |
| --- | --- | --- |
| CCCOc1nn(C(=O)NS(=O)(=O)c2c(I)cccc2OC(F)F)c(=O)n1C1CC1 [Compound 1.473] | very good herbicidal action | very good herbidical action |
| CCOc1nn(C(=O)NS(=O)(=O)c2c(I)cccc2OC)c(=O)n1C1CC1 [Compound 1.191, 4-Cyclopropyl-3-ethoxy-N-[(2-iodo-6-methoxyphenyl)sulfonyl]-5-oxo-4,5-dihydro-1H-1,2,4-triazole-1-carboxamide] | very good herbicidal action | very good herbidical action |
| COc1ccc(Cl)c(I)c1S(=O)(=O)NC(=O)n1nc(OC(C)C)n(C)c1=O [Compound 1.819] | very good herbicidal action | very good herbidical action |
| CCCCc1ccc(S(=O)(=O)NC(=O)n2nc(OCC)n(C3CC3)c2=O)c(I)c1 [Compound 1.887] | very good herbicidal action | very good herbidical action |
| CCCOc1nn(C(=O)NS(=O)(=O)c2cc(C(F)(F)F)ccc2I)c(=O)n1C1CC1 [Compound 1.841] | very good herbicidal action | very good herbidical action |
| CCOc1nn(C(=O)NS(=O)(=O)c2cccc(Cl)c2I)c(=O)n1C [Compound 1.829] | very good herbicidal action | very good herbidical action |
| CCCOc1nn(C(=O)NS(=O)(=O)c2c(OC)ccc(Cl)c2I)c(=O)n1C [Compound 1.818] | very good herbicidal action | very good herbidical action |
| CCOc1nn(C(=O)NS(=O)(=O)c2ccc(Cl)cc2I)c(=O)n1C1CC1 [Compound 1.874] | very good herbicidal action | very good herbidical action |
| CCOc1nn(C(=O)NS(=O)(=O)c2cccc(Cl)c2I)c(=O)n1C1CC1 [Compound 1.833] | very good herbicidal action | very good herbidical action |
| CCCOc1nn(C(=O)NS(=O)(=O)c2c(I)cccc2OC(C)C)c(=O)n1C1CC1 [Compound 1.264] | very good herbicidal action | very good herbidical action |
| Cc1ccc(S(=O)(=O)NC(=O)n2nc(OC(C)C)n(C)c2=O)c(I)c1F [Compound 1.858] | very good herbicidal action | very good herbidical action |
| CCCOc1nn(C(=O)NS(=O)(=O)c2c(I)cccc2OCC(F)F)c(=O)n1C1CC1 [Compound 1.514] | very good herbicidal action | very good herbidical action |
| CCCOc1nn(C(=O)NS(=O)(=O)c2ccccc2I)c(=O)n1C [Compound 1.005] | very good herbicidal action | very good herbidical action |
| CCCOc1nn(C(=O)NS(=O)(=O)c2ccc(F)cc2I)c(=O)n1C1CC1 [Compound 1.827] | very good herbicidal action | very good herbidical action |
| CCCOc1nn(C(=O)NS(=O)(=O)c2c(C)cccc2I)c(=O)n1C [Compound 1.039] | very good herbicidal action | very good herbidical action |
| COc1nn(C(=O)NS(=O)(=O)c2c(I)cccc2OC(C)C(F)(F)F)c(=O)n1C1CC1 (centres unmarked) [Compound 1.529] | very good herbicidal action | very good herbidical action |
| COc1nn(C(=O)NS(=O)(=O)c2c(Cl)ccc(Cl)c2I)c(=O)n1C [Compound 1.849] | very good herbicidal action | very good herbidical action |
| CCCOc1nn(C(=O)NS(=O)(=O)c2cc(C)c(C)cc2I)c(=O)n1C [Compound 1.864] | very good herbicidal action | very good herbidical action |
| CCCOc1nn(C(=O)NS(=O)(=O)c2ccccc2I)c(=O)n1C1CC1 [Compound 1.014] | very good herbicidal action | very good herbidical action |
| CCCCc1ccc(S(=O)(=O)NC(=O)n2nc(OCC)n(C)c2=O)c(I)c1 [Compound 1.883] | very good herbicidal action | very good herbidical action |
| COc1nn(C(=O)NS(=O)(=O)c2c(I)cccc2OCC(C)C)c(=O)n1C [Compound 1.289] | very good herbicidal action | very good herbidical action |
| CCCCOc1cccc(I)c1S(=O)(=O)NC(=O)n1nc(OCC)n(C2CC2)c1=O [Compound 1.279] | very good herbicidal action | very good herbidical action |
| CC(C)Oc1nn(C(=O)NS(=O)(=O)c2ccc(Cl)cc2I)c(=O)n1C [Compound 1.872] | very good herbicidal action | very good herbidical action |
| CC(C)Oc1nn(C(=O)NS(=O)(=O)c2c(I)cccc2OC(F)F)c(=O)n1C [Compound 1.465] | very good herbicidal action | very good herbidical action |
| CCCOc1nn(C(=O)NS(=O)(=O)c2c(I)cccc2OCC)c(=O)n1C [Compound 1.215] | very good herbicidal action | very good herbidical action |
| CCCOc1nn(C(=O)NS(=O)(=O)c2ccc(C)c(F)c2I)c(=O)n1C1CC1 [Compound 1.861] | very good herbicidal action | very good herbidical action |
| COc1nn(C(=O)NS(=O)(=O)c2c(I)cccc2SC)c(=O)n1C [Compound 1.579] | very good herbicidal action | very good herbidical action |
| COc1nn(C(=O)NS(=O)(=O)c2c(I)cccc2OCC2CC2)c(=O)n1C1CC1 [Compound 1.353] | very good herbicidal action | very good herbidical action |
